# Reference: US7528132B2, “Kinase inhibitors” (Schering Corporation, priority 2005, dated 2009)
# Target: T1, Akt1 (Homo sapiens, UniProt P31749)
# T1 construct: made in house; host or cells: Sf9 insect cells (baculovirus, pBlueBacHis2B)
# Experiment: Akt1 kinase assay (33P phosphorylation of biotinylated peptide, Flash plates)
# Type: biochemical
# Conditions: read-out: IC50 (AKT1 inhibition)
# From the text: The assay described below measures the phosphorylation of a biotinylated peptide by active recombinant Akt1 and other kinase isoforms. The biotinylated peptide contains a consensus sequence derived from Akt substrate Gsk3 (Glycogen synthase kinase 3). The ^33P-labeled peptide substrate was captured by streptavidin-coated Flash plates.
# Active recombinant Akt1 was expressed in Sf9 insect cells and purified as described by Kumar et al., Biochim. Biophys. Acta. Jun. 15, 2001, 1526(3), 257-268. Biotinylated peptide of the sequence Bio-ahx-RPRAASF was purchased from Syn Pep (Dublin, Calif., USA).
# Cloning and Expression of Human Akt1 Sf9 Cells
# Human Akt1 cDNA was amplified from a marathon-ready human lung cDNA library (Clonetech) using nested oligo primers as described below. The first round of amplification was carried out using the following primers; Akt1F1 ([…]) and Akt1R1 (TCCATC […]) and for the second round amplification, the primers of the following sequence were used; Akt1F2 (GGATCCTCGG […]) and AKT1R2 (GGTACCATCGTC […]). The PCR product was subcloned into pCRScript plasmid as a BamHI/KpnI fragment and the sequence of the cDNA was confirmed by DNA sequencing. This plasmid was used as a template for reamplification of Akt1 using appropriate primers for subcloning into pBlueBaHis2B into BamH1/EcoRI sites to generate an in frame fusion to (His)6 tag and an anti-Xpress antibody epitope tag at the N-terminus. This construct was sequenced to verify the junction sequences and used for generating a recombinant baculovirus. Growth of the recombinant virus, amplification and determination of viral titer were carried out according to the instructions from the manufacturer (InVitrogen, CA).
# Purification of Akt1 from Sf9 Cells
# Viral stocks were used to infect large scale Sf9 cells at a multiplicity of infection (MOI) of 2.5. Cells were maintained at 27° C. for 60 h and okadaic acid was added to the cultures to a concentration of 50 nM. Cells were harvested 4 h hours later by centrifugation at 1200 rpm for 30 min followed by freezing at −80° C. until further use. All purification steps were carried out at 4° C. Whole cell pellets were suspended in buffer A (20 mM sodium phosphate buffer pH 7.8, 500 mM NaCl, 1 mM sodium vanadate, 5 mM sodium fluoride, 40 mM β-glycerophosphate, 10 mM imidazole and protease inhibitor cocktail) and lysed using a microfluidizer. The cell extract was centrifuged at 16,000×g for 10 min to remove the debris and directly loaded onto Ni-NTA Superflow resin using a FPLC pump operated at 1 ml/min. The column was washed once with buffer A, once with wash buffer B (20 mM sodium phosphate pH 6.0, 1 mM sodium vanadate, 5 mM sodium fluoride and protease cocktail) and once with wash buffer B containing 0.05% Tween-20 followed by washing with buffer A until OD260 returned to basal level. Proteins were eluted with buffer A containing 200 mM imidazole. Fractions were analyzed by electrophoresis on 10% denaturing polyacrylamide gels and fractions containing 85% pure protein band at 60 KDa were pooled and dialyzed against buffer C (20 mM Tris-HCl pH 7.5, 0.5 mM EDTA,-2 mM DTT, 145 mM NaCl, 0.1 mM sodium vanadate, 5 mM sodium fluoride, 10 mM, β-glycerophosphate and 20% glycerol). Purified protein was stored as aliquots at −80° C. Protein concentrations were determined using BCA protein assay reagent A (Catalog #23228). To examine the identity of the proteins, 2 μg of purified protein was electrophoresed on SDS-polyacrylamide gels and stained with coomassie blue dye or transferred to nitrocellulose membrane and probed with anti-Akt and anti-phospho-specific Akt antibodies using enhanced chemiluminescence (ECL) reagent according to the protocol described by the manufacturer (Amersham).
# The kinase assay was performed in 96 well plates at room temperature. Assay solutions and plates were preincubated at room temperature for 5 min. […]
# T1 sequence (P31749 whole entry): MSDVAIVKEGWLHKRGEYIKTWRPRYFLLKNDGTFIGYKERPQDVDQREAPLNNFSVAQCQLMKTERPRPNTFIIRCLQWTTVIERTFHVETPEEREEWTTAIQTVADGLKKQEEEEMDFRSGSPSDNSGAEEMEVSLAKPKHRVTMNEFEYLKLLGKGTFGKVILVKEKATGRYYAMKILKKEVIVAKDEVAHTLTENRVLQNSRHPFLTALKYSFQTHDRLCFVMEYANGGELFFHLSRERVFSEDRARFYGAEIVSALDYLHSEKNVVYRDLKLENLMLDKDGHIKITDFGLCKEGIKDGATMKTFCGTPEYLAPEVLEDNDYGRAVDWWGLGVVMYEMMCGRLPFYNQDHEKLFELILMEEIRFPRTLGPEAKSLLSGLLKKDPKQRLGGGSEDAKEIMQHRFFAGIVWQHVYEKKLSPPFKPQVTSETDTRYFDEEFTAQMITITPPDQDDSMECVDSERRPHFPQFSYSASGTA
row,IC50 [nM],Compound
1,5.7,"Clc1n[nH]c2ccc(-c3nncc(N4CCN[C@@H](Cc5ccccc5)C4)n3)cc12 [Compound 56, 5-[(S)-3-benzylpiperazin-1-yl]-3-(3-chloroindazol-5-yl)-[1,2,4]triazine]"
2,6.1,"CC(C)C[C@H]1CN(c2cnnc(-c3ccc4[nH]nc(Cl)c4c3)n2)CCN1 [Compound 64, 3-(3-chloroindazol-5-yl)-5-[(S)-3-isobutylpiperazin-1-yl]-[1,2,4]triazine]"

# Same assay, conditions: read-out: IC50 rating (AKT1 inhibition)
row,IC50 [nM],Compound
1,> 1000,"Cc1n[nH]c2ccc(-c3nnc(Cl)c(N4CCN5CCCC5C4)n3)cc12 (stereo not shown) [Compound 31, 6-chloro-5-(1,4-diazabicyclo[4.3.0]non-1-yl)-3-(3-methylindazol-5-yl)-[1,2,4]triazine]"
2,> 1000,Cc1n[nH]c2ccc(-c3nnc(Cl)c(N4CCN5CCCCC5C4)n3)cc12 (stereo not shown) [Compound 32]
3,100 to 1000,"Cc1n[nH]c2ccc(-c3nncc(N4CCCC(N)C4)n3)cc12 (stereo not shown) [Compound 33, 5-(3-aminopiperidin-1-yl)-3-(3-methylindazol-5-yl)-[1,2,4]triazine]"
4,100 to 1000,"Cc1n[nH]c2ccc(-c3nnc(Cl)c(N4CCCC(N)C4)n3)cc12 (stereo not shown) [Compound 34, 5-(3-aminopiperidin-1-yl)-6-chloro-3-(3-methylindazol-5-yl)-[1,2,4]triazine]"
5,> 1000,"Cc1n[nH]c2ccc(-c3nncc(N4CCCC(CN)C4)n3)cc12 (stereo not shown) [Compound 35, 5-(3-aminmethylopiperidin-1-yl)-3-(3-methylindazol-5-yl)-[1,2,4]triazine]"
6,100 to 1000,"Cc1n[nH]c2ccc(-c3nnc(Cl)c(N4CCCC(CN)C4)n3)cc12 (stereo not shown) [Compound 36, 5-(3-aminmethyiopiperidin-1-yl)-6-chloro-3-(3-methylindazol-5-yl)-[1,2,4]triazine]"
7,100 to 1000,"Cc1n[nH]c2ccc(-c3nncc(N4CCC(N)C4)n3)cc12 (stereo not shown) [Compound 37, 5-(3-aminopyrrolidin-1-yl)-3-(3-methylindazol-5-yl)-[1,2,4]triazine]"
8,< 100,"Cc1n[nH]c2ccc(-c3nnc(Cl)c(N4CCC(N)C4)n3)cc12 (stereo not shown) [Compound 38, 5-(3-aminopyrrolidin-1-yl)-6-chloro-3-(3-methylindazol-5-yl)-[1,2,4]triazine]"
9,> 1000,COC(=O)C1CN(c2cnnc(-c3ccc4[nH]nc(C)c4c3)n2)CCN1 (stereo not shown) [Compound 39]
10,> 1000,COC(=O)C1CN(c2nc(-c3ccc4[nH]nc(C)c4c3)nnc2Cl)CCN1 (stereo not shown) [Compound 40]
11,100 to 1000,"Cc1n[nH]c2ccc(-c3nncc(N4CCNC5(CCCC5)C4)n3)cc12 [Compound 41, 5-(6,9-diaza-spiro[4.5]dec-9-yl)-3-(3-methylindazol-5-yl)-[1,2,4]triazine]"
12,100 to 1000,"Cc1n[nH]c2ccc(-c3nncc(N4CCN[C@H](c5ccccc5)C4)n3)cc12 [Compound 42, 3-(3-methylindazol-5-yl)-5-[(R)-3-phenylpiperazin-1-yl]-[1,2,4]triazine]"
13,100 to 1000,"Cc1n[nH]c2ccc(-c3nnc(Cl)c(N4CCN[C@H](c5ccccc5)C4)n3)cc12 [Compound 43, 6-chloro-3-(3-methylindazol-5-yl)-5-[(R)-3-phenylpiperazin-1-yl]-[1,2,4]triazine]"
14,< 100,"Cc1n[nH]c2ccc(-c3nncc(N4CCNC5(CCCCC5)C4)n3)cc12 [Compound 44, 5-(1,4-diaza-spiro[5.5]undec-4-yl)-3-(3-methylindazol-5-yl)-[1,2,4]triazine]"
15,< 100,"Cc1n[nH]c2ccc(-c3nncc(N4CCNC(Cc5ccc(F)cc5)C4)n3)cc12 (stereo not shown) [Compound 45, 5-[3-(4-fluorobenzyl)piperazin-1-yl]-3-(3-methylindazol-5-yl)-[1,2,4]triazine]"
16,100 to 1000,"Cc1n[nH]c2ccc(-c3nncc(N4CCNCC4)n3)cc12 [Compound 46, 3-(3-methylindazol-5-yl)-5-(piperazin-1-yl)-[1,2,4]triazine]"
17,< 100,"Cc1n[nH]c2ccc(-c3nncc(N4CCNC(Cc5cccc(F)c5)C4)n3)cc12 (stereo not shown) [Compound 47, 5-[3-(3-fluorobenzyl)piperazin-1-yl]-3-(3-methylindazol-5-yl)-[1,2,4]triazine]"
18,< 100,"Cc1n[nH]c2ccc(-c3nncc(N4CCNC(Cc5ccccc5F)C4)n3)cc12 (stereo not shown) [Compound 48, 5-[3-(2-fluorobenzyl)piperazin-1-yl]-3-(3-methylindazol-5-yl)-[1,2,4]triazine]"

row,IC50 [nM],Compound
1,> 1000,"c1ccc(CNc2nnc(-c3ccc4[nH]nc(-c5ccccc5)c4c3)nc2N2CCNCC2)cc1 [Compound 53, 6-Benzylamino-3-(3-phenylindazol-5-yl)-5-(piperazin-1-yl)-[1,2,4]triazine]"
2,100 to 1000,"Cc1n[nH]c2ccc(-c3nncc(N4CCNC(Cc5ccccc5)(Cc5ccccc5)C4)n3)cc12 [Compound 54, 5-(3,3-dibenzylpiperazin-1-yl)-3-(3-methylindazol-5-yl)-[1,2,4]triazine]"
3,< 100,"c1ccc(C[C@H]2CN(c3cnnc(-c4ccc5[nH]ncc5c4)n3)CCN2)cc1 [Compound 55, 5-[(S)-3-benzylpiperazin-1-yl]-3-indazol-5-yl-[1,2,4]triazine]"
4,< 100,"Clc1n[nH]c2ccc(-c3nncc(N4CCN[C@@H](Cc5ccccc5)C4)n3)cc12 [Compound 56, 5-[(S)-3-benzylpiperazin-1-yl]-3-(3-chloroindazol-5-yl)-[1,2,4]triazine]"
5,100 to 1000,"Cc1n[nH]c2ccc(-c3nncc(N4CCNC(Cc5cccnc5)C4)n3)cc12 (stereo not shown) [Compound 57, 3-(3-Methylindazol-5-yl)-5-[3-(pyridin-3-ylmethyl)piperazin-1-yl]-[1,2,4]triazine]"
6,> 1000,"Cc1n[nH]c2ccc(-c3nncc(N4CCNC(Cc5ccccn5)C4)n3)cc12 (stereo not shown) [Compound 58, 3-(3-methylindazol-5-yl)-5-[3-(pyridin-2-ylmethyl)piperazin-1-yl]-[1,2,4]triazine]"
7,100 to 1000,"Cc1n[nH]c2ccc(-c3nncc(N4CCCC(Cc5ccccc5)C4)n3)cc12 (stereo not shown) [Compound 59, 5-(3-benzylpiperidin-1-yl)-3-(3-methylindazol-5-yl)-[1,2,4]triazine]"
8,100 to 1000,"Cc1n[nH]c2ccc(-c3nncc(N4CCN(CCO)[C@@H](Cc5ccccc5)C4)n3)cc12 [Compound 60, 5-[(S)-3-benzyl-4-hydroxyethyl-piperazin-1-yl]-3-(3-methylindazol-5-yl)-[1,2,4]triazine]"
9,< 100,"CC(C)C[C@H]1CN(c2cnnc(-c3ccc4[nH]ncc4c3)n2)CCN1 [Compound 61, 3-indazol-5-yl-5-[(S)-3-isobutylpiperazin-1-yl]-[1,2,4]triazine]"
10,100 to 1000,"CCOC(=O)C1(Cc2ccccc2)CCCN(c2cnnc(-c3ccc4[nH]nc(C)c4c3)n2)C1 (stereo not shown) [Compound 62, 5-(3-benzyl-3-ethoxycarbonylpiperidin-1-yl)-3-(3-methylindazol-5-yl)-[1,2,4]triazine]"
11,100 to 1000,Cc1n[nH]c2ccc(-c3nncc(N4CCCC(CO)(Cc5ccccc5)C4)n3)cc12 (stereo not shown) [Compound 63]
12,< 100,"CC(C)C[C@H]1CN(c2cnnc(-c3ccc4[nH]nc(Cl)c4c3)n2)CCN1 [Compound 64, 3-(3-chloroindazol-5-yl)-5-[(S)-3-isobutylpiperazin-1-yl]-[1,2,4]triazine]"
13,> 1000,Cc1n[nH]c2ccc(-c3nncc(N4CCCC(Cc5ccccc5)(C(=O)O)C4)n3)cc12 (stereo not shown) [Compound 65]
14,> 1000,COC(=O)C1(Cc2ccccc2)CCCN(c2cnnc(-c3ccc4[nH]nc(C)c4c3)n2)C1 (stereo not shown) [Compound 66]
15,> 1000,"Nc1n[nH]c2ccc(-c3nncc(N4CCN[C@@H](Cc5ccccc5)C4)n3)cc12 [Compound 67, 3-(3-aminoindazol-5-yl)-5-[(S)-3-benzylpiperazin-1-yl]-[1,2,4]triazine]"
16,100 to 1000,"Cc1n[nH]c2ccc(-c3nncc(N4CCNC(Cc5ccncc5)C4)n3)cc12 (stereo not shown) [Compound 68, 3-(3-methylindazol-5-yl)-5-[3-(pyridin-4-ylmethyl)piperazin-1-yl]-[1,2,4]triazine]"
17,100 to 1000,"Cc1n[nH]c2ccc(-c3nncc(N4CCC(Cc5ccccc5)C4)n3)cc12 (stereo not shown) [Compound 69, 3-(3-methylindazol-5-yl)-5-(3-benzylpyrrolidin-1-yl)-[1,2,4]triazine]"
